According to patent US8148391B2 (Cephalon, Inc., priority 2006, dated 2012):
pIC50: −log10 of the molar value. Where two headings read alike, the source gives them in different places. Blank lines part the entries; values can stand above or below the compound they belong to.

Legend:
[1] = molecular target: T1, c-Met (cytoplasmic domain) (Homo sapiens, UniProt P08581); test: c-Met Kinase Assay (same methods as for ALK, with modifications); type: biochemical
T1 construct: 10 ng/mL c-Met (cytoplasmic domain, Invitrogen Corporation #PV3143); purchased Invitrogen Corporation PV3143
T1 sequence (P08581 956-1390 limits assumed): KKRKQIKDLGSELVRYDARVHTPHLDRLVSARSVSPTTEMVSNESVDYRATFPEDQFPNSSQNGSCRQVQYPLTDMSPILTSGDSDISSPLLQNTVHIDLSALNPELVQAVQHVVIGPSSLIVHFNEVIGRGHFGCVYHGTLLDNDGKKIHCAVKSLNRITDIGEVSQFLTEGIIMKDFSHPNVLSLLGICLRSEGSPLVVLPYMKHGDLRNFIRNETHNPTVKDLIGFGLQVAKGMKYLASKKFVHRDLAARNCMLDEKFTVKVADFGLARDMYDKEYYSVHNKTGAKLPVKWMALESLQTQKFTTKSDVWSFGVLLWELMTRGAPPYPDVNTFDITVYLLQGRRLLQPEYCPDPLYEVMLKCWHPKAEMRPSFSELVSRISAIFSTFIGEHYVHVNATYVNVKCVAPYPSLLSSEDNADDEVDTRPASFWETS
Method in brief: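 Europium-labeled PT66 antibody (Eu-N1) detects substrate phosphorylation on wells coated with phospholipase C-γ at 10 μg/mL. The kinase, the cytoplasmic domain of c-Met at 10 ng/mL, starts the reaction, which proceeds 15 minutes at 37° C.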

[2] = molecular target: T2, baculovirus-expressed ALK (Homo sapiens, UniProt Q9UM73); test: ALK Kinase Assay (ELISA-type, time-resolved fluorescence); type: biochemical
T2 construct: host or cells: baculovirus expression system
T2 sequence (Q9UM73 19-1620): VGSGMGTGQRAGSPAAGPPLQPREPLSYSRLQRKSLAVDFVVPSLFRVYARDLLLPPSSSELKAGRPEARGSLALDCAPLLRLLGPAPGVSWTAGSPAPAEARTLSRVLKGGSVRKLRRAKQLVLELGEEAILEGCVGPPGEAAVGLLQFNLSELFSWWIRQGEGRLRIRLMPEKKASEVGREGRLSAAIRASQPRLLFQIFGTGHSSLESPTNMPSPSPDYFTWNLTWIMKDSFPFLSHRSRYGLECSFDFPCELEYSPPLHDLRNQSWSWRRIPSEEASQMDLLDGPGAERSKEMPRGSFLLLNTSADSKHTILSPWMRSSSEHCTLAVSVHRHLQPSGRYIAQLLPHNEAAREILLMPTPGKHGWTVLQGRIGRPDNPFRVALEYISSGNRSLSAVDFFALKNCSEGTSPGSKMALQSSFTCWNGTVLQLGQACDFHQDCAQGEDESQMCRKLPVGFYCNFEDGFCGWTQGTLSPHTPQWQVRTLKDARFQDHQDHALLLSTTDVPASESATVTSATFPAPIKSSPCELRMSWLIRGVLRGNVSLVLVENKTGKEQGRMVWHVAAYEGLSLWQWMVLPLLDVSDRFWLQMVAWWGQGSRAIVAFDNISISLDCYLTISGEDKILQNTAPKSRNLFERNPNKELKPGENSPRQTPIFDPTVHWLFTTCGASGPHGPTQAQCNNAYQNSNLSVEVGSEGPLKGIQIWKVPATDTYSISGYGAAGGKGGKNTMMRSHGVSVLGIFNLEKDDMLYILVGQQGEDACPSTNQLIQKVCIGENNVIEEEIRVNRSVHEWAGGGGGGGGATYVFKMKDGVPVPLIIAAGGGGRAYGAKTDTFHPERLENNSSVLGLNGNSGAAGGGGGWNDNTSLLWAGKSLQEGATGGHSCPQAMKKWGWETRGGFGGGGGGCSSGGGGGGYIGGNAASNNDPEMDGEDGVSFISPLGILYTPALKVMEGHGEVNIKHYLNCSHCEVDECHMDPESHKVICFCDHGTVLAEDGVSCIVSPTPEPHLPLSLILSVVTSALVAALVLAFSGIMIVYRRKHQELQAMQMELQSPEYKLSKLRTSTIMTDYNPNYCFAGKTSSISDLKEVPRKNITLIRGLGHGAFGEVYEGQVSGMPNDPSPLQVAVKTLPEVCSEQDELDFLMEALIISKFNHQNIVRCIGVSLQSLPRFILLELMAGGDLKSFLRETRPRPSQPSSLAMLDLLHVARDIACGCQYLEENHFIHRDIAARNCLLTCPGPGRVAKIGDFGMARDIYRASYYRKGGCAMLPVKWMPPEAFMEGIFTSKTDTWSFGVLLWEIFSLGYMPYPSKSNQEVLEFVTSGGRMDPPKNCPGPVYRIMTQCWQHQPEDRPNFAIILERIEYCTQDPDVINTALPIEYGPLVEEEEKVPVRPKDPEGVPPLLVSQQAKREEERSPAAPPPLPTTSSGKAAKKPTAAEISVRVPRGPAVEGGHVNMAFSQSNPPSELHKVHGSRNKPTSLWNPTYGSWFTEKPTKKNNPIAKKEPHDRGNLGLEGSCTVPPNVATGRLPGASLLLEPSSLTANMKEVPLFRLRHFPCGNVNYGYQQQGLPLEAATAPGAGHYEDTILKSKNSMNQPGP
Method in brief: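 Plates coated with phospholipase C-γ substrate (10 μg/mL in TBS); reaction started with 30 ng/ml ALK and run 15 min at 37° C. Phosphorylated substrate detected with Eu-N1-labeled PT66 antibody. IC50 from sigmoidal variable-slope fit of percent inhibition vs log concentration.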

[3] = 1 μM ATP (Km level), 10 ng/mL c-Met, read-out: cMet Activity (c-Met kinase inhibition, IC50 class)
[4] = 1 μM ATP (Km level), 30 ng/ml ALK, 37° C., 15 minutes, read-out: ALK Activity (ALK kinase inhibition, IC50 class)
[5] = 1 μM ATP (Km level), read-out: cMet Activity (c-Met Kinase Inhibition, IC50)
[6] = 1 μM ATP (Km level), read-out: ALK Activity (ALK Kinase Inhibition, IC50)
[7] = c-Met kinase inhibition, 1 μM ATP (Km level), read-out: cMet Activity
[8] = ALK kinase inhibition, 1 μM ATP (Km level), read-out: ALK Activity
[9] = c-Met kinase inhibition, 1 μM ATP, read-out: cMet Activity
[10] = ALK kinase inhibition, 1 μM ATP, read-out: ALK Activity

Compound: COc1cc2c(cc1Nc1ncc(Cl)c(Nc3ccccc3-n3cccn3)n1)CCN(CC(F)F)CC2 [Example 823, 5-Chloro-N*2*-[3-(2,2-difluoro-ethyl)-8-methoxy-2,3,4,5-tetrahydro-1H-benzo[d]azepin-7-yl]-N*4*-(2-pyrazol-1-yl-phenyl)-pyrimidine-2,4-diamine]
pIC50 [1, 5]: < 5.00
pIC50 [2, 6]: > 7.00

Compound: C#CCN1CCN(C)c2cc(Nc3ncc(Cl)c(N[C@@H]4CCCC[C@H]4NS(C)(=O)=O)n3)ccc2C1 [Example 480, N-{(1R,2R)-2-[5-Chloro-2-(1-methyl-4-prop-2-ynyl-2,3,4,5-tetrahydro-1H-benzo[e][1,4]diazepin-8-ylamino)-pyrimidin-4-ylamino]-cyclohexyl}-methanesulfonamide]
pIC50 [1, 7]: 5.00 to 6.00
pIC50 [2, 8]: > 7.00

Compound: CNC(=O)c1ccccc1Nc1nc(Nc2ccc3c(c2)C2CCC(C3)N2C(C)C)ncc1Cl (centres unmarked) [Example 80, 2-[5-Chloro-2-(12-isopropyl-12-aza-tricyclo[7.2.1.0*2,7*]dodeca-2(7),3,5-trien-4-ylamino)-pyrimidin-4-ylamino]-N-methyl-benzamide]
pIC50 [1, 7]: > 7.00
pIC50 [2, 8]: > 7.00

Compound: CCN1CCN(CC)c2cc(Nc3ncc(Cl)c(Nc4ccccc4-n4cccn4)n3)ccc2C1 [Example 725, 5-Chloro-N(2)-(1,4-diethyl-2,3,4,5-tetrahydro-1H-benzo[e][1,4]diazepin-8-yl)-N(4)-(2-pyrazol-1-yl-phenyl)-pyrimidine-2,4-diamine]
pIC50 [1, 5]: 6.00 to 7.00
pIC50 [2, 6]: > 7.00

Compound: COc1cc2c(cc1Nc1ncc(Cl)c(N[C@@H]3CCCC[C@H]3NS(C)(=O)=O)n1)CCC(N1CCN(C)CC1)CC2 (single isomer, unassigned) [Example 1102]
pIC50 [1, 3]: > 7.00
pIC50 [2, 4]: > 7.00

Compound: CCN1CC2OC(C1)c1cc(Nc3ncc(Cl)c(Nc4ccccc4S(=O)(=O)NC)n3)ccc12 (centres unmarked) [Example 66, 2-[5-Chloro-2-(10-ethyl-12-oxa-10-aza-tricyclo[6.3.1.0*2,7*]dodeca-2(7),3,5-trien-4-ylamino)-pyrimidin-4-ylamino]-N-methyl-benzenesulfonamide]
pIC50 [1, 7]: 5.00 to 6.00
pIC50 [2, 8]: > 7.00

Compound: CNC(=O)c1ccccc1Nc1nc(Nc2ccc3c(c2)CCNCC3)ncc1Cl [Example 45, 2-[5-Chloro-2-(2,3,4,5-tetrahydro-1H-benzo[d]azepin-7-ylamino)-pyrimidin-4-ylamino]-N-methyl-benzamide]
pIC50 [1, 7]: > 7.00
pIC50 [2, 8]: > 7.00

Compound: COCCN1CCc2ccc(Nc3ncc(Cl)c(NCC(C)(C)NS(C)(=O)=O)n3)cc2CC1 [Example 305, N-(2-{5-Chloro-2-[3-(2-methoxy-ethyl)-2,3,4,5-tetrahydro-1H-benzo[d]azepin-7-ylamino]-pyrimidin-4-ylamino}-1,1-dimethyl-ethyl)-methanesulfonamide]
pIC50 [1, 7]: < 5.00
pIC50 [2, 8]: 6.00 to 7.00

Compound: NC(=O)C1C2C=CC(C2)C1Nc1nc(Nc2ccc3c(c2)CCC(N2CCOCC2)CC3)ncc1Cl (centres unmarked) [Example 867, 3-[5-Chloro-2-(7-morpholin-4-yl-6,7,8,9-tetrahydro-5H-benzocyclohepten-2-ylamino)-pyrimidin-4-ylamino]-bicyclo[2.2.1]hept-5-ene-2-carboxylic acid amide]
pIC50 [1, 5]: 6.00 to 7.00
pIC50 [2, 6]: > 7.00

Compound: CC1(C)CCC(=O)Nc2ccc(Nc3ncc(Cl)c(Nc4ccc(N5CCC(C(=O)O)CC5)cc4-n4cccn4)n3)cc21 [Example 629, 1-{4-[5-Chloro-2-(5,5-dimethyl-2-oxo-2,3,4,5-tetrahydro-1H-benzo[b]azepin-7-ylamino)-pyrimidin-4-ylamino]-3-pyrazol-1-yl-phenyl}-piperidine-4-carboxylic acid]
pIC50 [1, 5]: 5.00 to 6.00
pIC50 [2, 6]: > 7.00

Compound: CCN1C(=O)CCC(C)(C)c2ccc(Nc3ncc(Cl)c(Nc4ccc(N(C)C)cc4S(=O)(=O)N(C)C)n3)cc21 [Example 850, 2-[5-Chloro-2-(1-ethyl-5,5-dimethyl-2-oxo-2,3,4,5-tetrahydro-1H-benzo[b]azepin-8-ylamino)-pyrimidin-4-ylamino]-5-dimethylamino-N,N-dimethyl-benzenesulfonamide]
pIC50 [1, 5]: 6.00 to 7.00
pIC50 [2, 6]: > 7.00

Compound: COc1cc2c(cc1Nc1ncc(Cl)c(N[C@@H]3CCCC[C@H]3NS(C)(=O)=O)n1)CCN(C[C@H](O)C(F)(F)F)CC2 [Example 461, N-((1R,2R)-2-{5-Chloro-2-[8-methoxy-3-((S)-3,3,3-trifluoro-2-hydroxy-propyl)-2,3,4,5-tetrahydro-1H-benzo[d]azepin-7-ylamino]-pyrimidin-4-ylamino}-cyclohexyl)-methanesulfonamide]
pIC50 [1, 7]: < 5.00
pIC50 [2, 8]: > 7.00

Other lines, results leading:

pIC50 [1, 3]: < 5.00
pIC50 [2, 4]: > 7.00
Compound: COCCN(C)S(=O)(=O)c1ccccc1Nc1nc(Nc2cc3c(cc2OC)CCN(CC(=O)N(C)C)CC3)ncc1Cl [Example 1184, 2-[7-(5-Chloro-4-{2-[(2-methoxy-ethyl)-methyl-sulfamoyl]-phenylamino}-pyrimidin-2-ylamino)-8-methoxy-1,2,4,5-tetrahydro-benzo[d]azepin-3-yl]-N,N-dimethyl-acetamide]

pIC50 [1, 3]: < 5.00
pIC50 [2, 4]: > 7.00
Compound: CCN1C(=O)CCCc2c1ccc(Nc1ncc(Cl)c(Nc3ccc(N4CCN(C)CC4)cc3OC)n1)c2OC [Example 1311, 7-{5-Chloro-4-[2-methoxy-4-(4-methyl-piperazin-1-yl)-phenylamino]-pyrimidin-2-ylamino}-1-ethyl-6-methoxy-1,3,4,5-tetrahydro-benzo[b]azepin-2-one]

pIC50 [1, 9]: > 7.00
pIC50 [2, 10]: 6.00 to 7.00
Compound: CNC(=O)c1cccc(F)c1Nc1nc(Nc2ccc3c(c2)N(C(C)=O)CCCC3(C)C)ncc1Cl [Example 1596, 2-[2-(1-Acetyl-5,5-dimethyl-2,3,4,5-tetrahydro-1H-benzo[b]azepin-8-ylamino)-5-chloro-pyrimidin-4-ylamino]-3-fluoro-N-methyl-benzamide]

pIC50 [1, 9]: > 7.00
pIC50 [2, 10]: 6.00 to 7.00
Compound: CCN1C(=O)C(NC(=O)C(F)(F)F)CC(C)(C)c2ccc(Nc3ncc(Cl)c(Nc4c(F)cccc4C(=O)NC)n3)cc21 (centres unmarked) [Example 1642, 2-{5-Chloro-2-[1-ethyl-5,5-dimethyl-2-oxo-3-(2,2,2-trifluoro-acetylamino)-2,3,4,5-tetrahydro-1H-benzo[b]azepin-8-ylamino]-pyrimidin-4-ylamino}-3-fluoro-N-methyl-benzamide]

pIC50 [1, 9]: 6.00 to 7.00
pIC50 [2, 10]: 6.00 to 7.00
Compound: CNC(=O)c1c(C)cccc1Nc1nc(Nc2ccc3c(c2)CCOC(=O)N3C)ncc1Cl [Example 1755, 2-[5-Chloro-2-(5-methyl-6-oxo-5,6,8,9-tetrahydro-7-oxa-5-aza-benzocyclohepten-2-ylamino)-pyrimidin-4-ylamino]-6,N-dimethyl-benzamide]

pIC50 [1, 9]: 5.00 to 6.00
pIC50 [2, 10]: 5.00 to 6.00
Compound: CNC(=O)c1cc(F)ccc1Nc1nc(Nc2ccc3c(c2)CN(C)C(=O)CC3)ncc1Cl [Example 1809, 2-[5-Chloro-2-(2-methyl-3-oxo-2,3,4,5-tetrahydro-1H-benzo[c]azepin-8-ylamino)-pyrimidin-4-ylamino]-5-fluoro-N-methyl-benzamide]

pIC50 [1, 9]: < 5.00
pIC50 [2, 10]: > 7.00
Compound: COc1cc2c(cc1Nc1ncc(Cl)c(Nc3ccc(N4CCOCC4)cc3OC)n1)CCN(CC(=O)N1CCOCC1)CC2 [Example 1526, 2-{7-[5-Chloro-4-(2-methoxy-4-morpholin-4-yl-phenylamino)-pyrimidin-2-ylamino]-8-methoxy-1,2,4,5-tetrahydro-3-benzazepin-3-yl}-1-morpholin-4-yl-ethanone]
